In patent US20120245099A1, “APOPTOSIS INDUCER” (NIHON UNIVERSITY, priority 2009, published 2012):

Columns and labels:
Cos cells [1] = experiment: Concentration dependence of recombinant E3 protein, LDH activity in culture supernatant (Example 10); assay type: cell-based; settings: 24 hours after addition
Experimental: A recombinant E3 protein produced from transformed E. coli was added at different concentrations (0 to 2.0 ng/ml) to cultured Cos cells. At 24 hours after addition, the culture supernatants were each measured for LDH activity.

[2] = tested on: P5 cells (vascular endothelial cell line); experiment: Recombinant E3 protein added to cells, LDH activity in culture supernatant (Example 11); assay type: cell-based; settings: P5 cells (adherent), 1 ng/ml or 5 ng/ml, 24 hours after addition
[3] = tested on: CRL cells (human melanoma cells); experiment: as above; assay type: cell-based; settings: CRL cells (adherent), 1 ng/ml or 5 ng/ml, 24 hours after addition
Cos cells [4] = experiment: Recombinant E3 protein added to cultured Cos cells, H33342 staining (Example 8); assay type: cell-based; settings: recombinant protein from E. coli, 24 hours after addition
Experimental: To cultured Cos cells, a recombinant E3 protein produced from transformed E. coli was added. At 24 hours after addition, the cells were stained with H33342 and observed under a phase contrast microscope and a fluorescent microscope.

[5] = tested on: MEL cells (mouse leukemia cells); experiment: Recombinant E3 protein added to cells, LDH activity in culture supernatant (Example 11); assay type: cell-based; settings: MEL cells (floating), 1 ng/ml or 5 ng/ml, 24 hours after addition
Cos cells [6] = experiment: LDH activity in supernatant of Cos cells transformed with E3, E3 mutants or F IX EGF domain (Example 9); assay type: cell-based; settings: APtag4 vector, medium replaced 4 hours after gene transfer, measured after further 24 hours
Source text: cDNA for E3 (a part of Del-1) or an amino acid substitution mutant thereof was integrated into an AP expression vector (APtag4) and then introduced into cultured Cos cells. Likewise, cDNA for the EGF domain of blood coagulation factor IX (F IX; cDNA: SEQ ID NO: 24, amino acid sequence: SEQ ID NO: 25) was also integrated into APtag4 and then introduced into cultured Cos cells. As a control, an AP expression vector free from the above cDNAs for E3 and so on was used. It should be noted that the amino acid substitution mutants of E3 used for the above purpose were E3 D136E (cDNA: SEQ ID NO: 34, amino acid sequence: SEQ ID NO: 35), E3 D136N (cDNA: SEQ ID NO: 36, amino acid sequence: SEQ ID NO: 37) and E3 Y141F (cDNA: SEQ ID NO: 38, amino acid sequence: SEQ ID NO: 39). […] At 4 hours after gene transfer, the medium in each case was replaced with fresh culture medium and, after further 24 hours, the supernatant was measured for LDH activity. A cell lysate was prepared for each case and measured for LacZ activity. […]

Cos cells [7] = experiment: LDH activity in supernatant of Cos cells transformed with cDNA for Del-1 or its parts (Example 7); assay type: cell-based; settings: APtag4 vector, medium replaced 24 hours after gene transfer, measured after further one hour
Source text: cDNA for full-length Del-1 (SEQ ID NO: 4) was integrated into an AP expression vector (APtag4) and then introduced into cultured Cos cells. Likewise, cDNA for a part of Del-1 was also integrated into APtag4 and then introduced into cultured Cos cells. As a control, an AP expression vector free from the above cDNA for full-length Del-1 or a part thereof was used. It should be noted that the members each used as a part of Del-1 were EGF-like domains in the full-length Del-1 protein, i.e., EGF1 (E1; cDNA: SEQ ID NO: 26, amino acid sequence: SEQ ID NO: 27), EGF2 (E2; cDNA: SEQ ID NO: 28, amino acid sequence: SEQ ID NO: 29) and EGF3 (E3; cDNA: SEQ ID NO: 6, amino acid sequence: SEQ ID NO: 7), a fusion protein between discoidin I-like domains, i.e., Discoidin1 and Discoidin2 (C1C2; cDNA: SEQ ID NO: 30, amino acid sequence: SEQ ID NO: 31), an amino acid substitution (D136E) mutant of the above full-length Del-1 (Del1m; cDNA: SEQ ID NO: 32, amino acid sequence: SEQ ID NO: 33), as well as an amino acid substitution (D136E) mutant of E3, i.e., E3 D136E (E3m; cDNA: SEQ ID NO: 34, amino acid sequence: SEQ ID NO: 35). […] At 24 hours after gene transfer, the medium in each case was replaced with fresh culture medium and, after further one hour, the supernatant was measured for LDH activity. A cell lysate was prepared for each case and measured for LacZ activity. […]

[8] = tested on: SCCKN cells (human oral squamous cell carcinoma-derived cell line); experiment: Tumor-transplanted model mice, intratumoral gene transfer, tumor size over time (Example 12); assay type: in vivo; settings: nude mice with SCCKN tumors, 10 μg DNA, Day0 to Day7
Experimental: For measurement of tumor size, the long axis and short axis of each tumor were measured with a ruler and multiplied by each other. In the figure, the tumor size (vertical axis) is expressed as a relative value (mean±SD), assuming that the value obtained at the time of gene transfer is set to 1.
Using tumor-transplanted model mice, a peptide containing the EGF3 domain, which is a part of Del-1, was studied for its therapeutic effect on tumor. More specifically, this peptide was verified as to whether its combined use with the FasL (Fas ligand) protein, whose antitumor effect has already been established, would enhance the antitumor effect when compared to FasL alone. […]
Then, 5×10^6 SCCKN cells (human oral squamous cell carcinoma-derived cell line) were injected under the dorsal skin of nude mice at 5 weeks of age. The mice were then measured over time for their tumor size. […]
The tumor size after gene transfer was measured over time (for 7 days: Day0 to Day7), and the results obtained are shown in FIG. 12.

Molecule: E3: EGF3 EGF-like domain of Del-1, amino acids 123-157, SEQ ID NO: 7 (CEAEPCRNGGICTDLVANYSCECPGEFMGRNCQYK; listed as Mus musculus)
- E3 protein concentration effective for apoptosis induction (LDH activity) (Cos cells [1]; 0 to 2.0 ng/ml): ≥ 0.4 ng/mL
- E3 protein concentration above which the effect on apoptosis induction remained unchanged (Cos cells [1]): higher than 1 ng/ml
- cytotoxic activity (apoptosis induction), LDH activity [2]: showed cytotoxic activity
- cytotoxic activity (apoptosis induction), LDH activity [3]: showed cytotoxic activity
- chromosome aggregation (H33342 nuclear staining) (Cos cells [4]): chromosomes were aggregated
- cytotoxic activity, LDH activity [5]: no cytotoxic activity
- LDH activity of supernatant, normalized by LacZ activity (Cos cells [6]): high LDH activity

Molecule: E3m: amino acid substitution (D136E) mutant of E3, SEQ ID NO: 35 (CEAEPCRNGGICTELVANYSCECPGEFMGRNCQYK; listed as Mus musculus)
- increase in LDH activity of supernatant, normalized by LacZ activity (Cos cells [7]): lost

Molecule: F IX: EGF domain of blood coagulation factor IX, SEQ ID NO: 25 (CESNPCLNGGICKDDISSYECWCQVGFEGRNCEL; listed as Mus musculus)
- LDH activity of supernatant, normalized by LacZ activity (Cos cells [6]): high LDH activity

B1: E3C1: fusion peptide between EGF3 domain and Discoidin1, amino acids 123 to 319 of mouse Del-1, SEQ ID NO: 42 (protein, listed as Mus musculus)
chain: CEAEPCRNGGICTDLVANYSCECPGEFMGRNCQYKCSGPLGIEGGIISNQQITASSTHRALFGLRKWYPYYARLNKKGLINAWTAAENDRWPWIQINLQRKMRVTGVITQGAKRIGSPEYIKSYKIAYSNDGKTWAMYKVKGTNEEMVFRGNVDNNTPYANSFTPPIKAQYVRLYPQICRRHCTLRMELLGCELSGC
- antitumor effect (tumor size) of E3C1 cDNA together with FasL cDNA compared with FasL alone [8]: higher antitumor effect
